Assay results as given in US5374634A, “Pyridine derivatives” (Kyowa Hakko Kogyo Co., Ltd., priority 1992, dated 1994).

test system: PTH-induced calcium release (i.e. bone resorption) from bones (calvaria); test: Bone resorption-inhibiting effect: inhibition of PTH-induced calcium release from cultured calvaria; assay type: cell-based, dd mice (5- to 6-day-old); conditions: mouse half calvaria culture; PTH 1×10^-8 M; calcium in medium at 96 hours; test compound 3×10^-6, 1×10^-5, 3×10^-5 M
Description: The bone resorption-inhibiting effect of the compounds of the present invention is illustrated by the following experiment.
Calvaria were aseptically removed from 5- to 6-day-old dd mice, washed with Dulbecco's modified phosphate-buffered saline not containing calcium and magnesium (product of Gibco Oriental Co.), and cut along the sagittal suture into left and right halves. Each half calvarium was cultured in 1.5 ml medium consisting of Dulbecco's modified Eagle medium (high glucose) (product of Gibco Oriental Co.) supplemented with 15% heat-inactivated (at 56° C. for 20 minutes) horse serum, 2.5% heat-inactivated fetal bovine serum, plus 1% antibiotic-antimycotic liquid. The test compound was dissolved in dimethylsulfoxide, and a 10 μl portion of the solution was added to the culture to the final concentrations of 3×10^-6 M, 1×10^-5 M and 3×10^-5 M. PTH (parathyroid hormone) was dissolved in 0.15M sodium chloride (pH 3), and a 3 μl-portion of the resulting solution was added to the culture to the final concentration of 1×10^-8 M. Cultures were incubated at 37° C. in a water-saturated atmosphere consisting of 5% CO2 and 95% air. Typically, cultures were maintained for 96 hours and the media were changed at 48 hours. The test compound and PTH which had been processed in the same manner as described above were added thereto. In order to investigate the action of the test compound on PTH-induced calcium release (i.e. bone resorption) from bones, there were prepared 3 groups: control group, PTH treated group (1×10^-8 M) and test compound- and PTH-treated group (3×10^-6 M, 1×10^-5 M, 3×10^-5 M). Bone resorption was assessed by measuring the accumulation of calcium in the culture media collected at 96 hours of culturing. The total calcium concentrations were determined using Calcium C-Test Wako (product of Wako). The inhibition rate was calculated therefrom according to the equation given below and 50% inhibitory concentration (IC50) was determined. [formula] CO : Total calcium concentration in the culture free from both PTH and test compound
Cp : Total calcium concentration in the culture treated with PTH only
CD : Total calcium concentration in the culture treated with both PTH and test compound.

Q: For O=C(NC12CC3CC(CC(C3)C1)C2)c1ccncc1C(c1ccc(O)cc1)c1ccc(O)cc1 [Compound 11, N-(Tricyclo[3.3.1.1^3,7]dec-1-yl)-3-[bis(4-hydroxyphenyl)methyl]-4-pyridinecarboxamide], which IC50 is on record?
A: 20.3 µM

Q: Which IC50 does the source give for O=C(Nc1ccc(O)cc1)c1ccncc1C(c1ccc(O)cc1)c1ccc(O)cc1 [Compound 15, N-(4-Hydroxyphenyl)-3-[bis(4-hydroxyphenyl)methyl]-4-pyridinecarboxamide] here?
A: 75.6 µM

Q: How did the IC50 turn out when O=C(NC12CC3CC(CC1C3)C2)c1ccncc1C(c1ccc(O)cc1)c1ccc(O)cc1 [Compound 9, N-(Tricyclo[3.3.1.0^3,7]non-3-yl)-3-[bis(4-hydroxyphenyl)methyl]-4-pyridinecarboxamide] was run?
A: 18.6 µM

Q: Which IC50 does the source give for O=C(c1ccncc1C(c1ccc(O)cc1)c1ccc(O)cc1)N1CCN(c2ccccc2Cl)CC1 [Compound 13, 1-(2-Chlorophenyl)-4-{[3--bis(4,hydroxyphenyl)methyl]isonicotinyl}piperazine] here?
A: 6 µM

Q: Which IC50 does the source give for O=C(NC1CCCCCCC1)c1ccncc1C(c1ccc(O)cc1)c1ccc(O)cc1 [Compound 12, N-Cyclooctyl-3-[bis(4-hydroxyphenyl)methyl]-4-pyridinecarboxamide] here?
A: 11.6 µM

Q: How did the IC50 turn out when O=C(c1ccncc1C(c1ccc(O)cc1)c1ccc(O)cc1)N1CCN(c2ccccc2)CC1 [Compound 20, 1-Phenyl-4-{[3-bis(4-hydroxyphenyl)methyl]isonicotinyl}piperazine] was run?
A: 75.6 µM

Q: With O=C(c1ccncc1C(c1ccc(O)cc1)c1ccc(O)cc1)N1CCN(c2ccc(Cl)cc2)CC1 [Compound 17, 1-(4-Chlorophenyl)-4-{[3-bis(4-hydroxyphenyl)methyl]isonicotinyl}piperazine] as the molecule, how does the IC50 read?
A: 24.9 µM

Q: How did the IC50 turn out when O=C(c1ccncc1C(c1ccc(O)cc1)c1ccc(O)cc1)N1CCN(c2cccc(Cl)c2)CC1 [Compound 18, 1-(3-Chlorophenyl)-4-{[3-bis(4-hydroxyphenyl)methyl]isonicotinyl}piperazine] was run?
A: 14 µM

Q: O=C(c1ccncc1C(c1ccc(O)cc1)c1ccc(O)cc1)N1CCN(c2ccccc2O)CC1 [Compound 19, 1-(2-Hydroxyphenyl)-4-{[3-bis(4-hydroxyphenyl)methyl]isonicotinyl}piperazine] was tested. Which IC50 did it give?
A: 8.9 µM

Q: For O=C(c1ccncc1C(c1ccc(O)cc1)c1ccc(O)cc1)N1CCN(c2cccc(C(F)(F)F)c2)CC1 [Compound 16, 1-(3-Trifluoromethylphenyl)-4-{[3-bis(4-hydroxyphenyl)methyl]isonicotinyl}piperazine], which IC50 is on record?
A: 7.1 µM

Q: Which IC50 does the source give for O=C(c1ccncc1C(c1ccc(O)cc1)c1ccc(O)cc1)N1CCN(c2ncccn2)CC1 [Compound 22, 1-(2-Pyrimidyl)-4-{[3-bis(4-hydroxyphenyl)methyl]isonicotinyl}piperazine] here?
A: 19.6 µM

Q: Cc1cccc(N2CCN(C(=O)c3ccncc3C(c3ccc(O)cc3)c3ccc(O)cc3)CC2)c1 [Compound 21, 1-(3-Methylphenyl)-4-{[3-bis(4-hydroxyphenyl)methyl]isonicotinyl}piperazine] was tested. Which IC50 did it give?
A: 8.5 µM

Q: With O=C(c1ccncc1C(c1ccc(O)cc1)c1ccc(O)cc1)N1CCCCC1 [Compound 10] as the molecule, how does the IC50 read?
A: 19.2 µM

test system: dd-strain male mice; test: Acute toxicity test (oral, minimum lethal dose); assay type: in vivo; conditions: mortality observed for 7 days
Description: A test compound was orally administered to three dd-strain male mice weighing 20±1 g. The minimum lethal dose (MLD) was determined by observing the mortality for 7 days after the administration.

Q: Which “MLD (minimum lethal dose)” value does the source give for O=C(c1ccncc1C(c1ccc(O)cc1)c1ccc(O)cc1)N1CCN(c2ccccc2Cl)CC1 [Compound 13, 1-(2-Chlorophenyl)-4-{[3--bis(4,hydroxyphenyl)methyl]isonicotinyl}piperazine] here?
A: > 1000 mg/kg

Q: How did the “MLD (minimum lethal dose)” value turn out when COc1ccc(C(c2ccc(OC)cc2)c2cnccc2C(=O)N2CCN(c3ccccc3Cl)CC2)cc1 [Compound 6, 1-(2-Chlorophenyl)-4-{[3-bis(4-methoxyphenyl)methyl]-isonicotinyl}piperazine] was run?
A: > 300 mg/kg

Q: O=C(c1ccncc1C(c1ccc(O)cc1)c1ccc(O)cc1)N1CCN(c2cccc(Cl)c2)CC1 [Compound 18, 1-(3-Chlorophenyl)-4-{[3-bis(4-hydroxyphenyl)methyl]isonicotinyl}piperazine] was tested. Which “MLD (minimum lethal dose)” value did it give?
A: > 300 mg/kg
